Measurements reported in US7884186B2, “Isotopically labeled trapping agent and method for identifying reactive metabolites” (Janssen Pharmaceutica NV, priority 2006, dated 2011).

system: human liver microsomal preparations (cytochrome P450 enzyme preparations); assay: Reactive metabolite trapping with compound of formula (I) / (I-IS) in human liver microsomal incubation, neutral loss (129 Da) LC-MS/MS; assay type: in vitro ADME; conditions: 10 μM test compound, 1 mg/ml microsomal proteins, 1 mM 1:1 mixture of formula (I) and (I-IS), NADPH generating system, 60 min, 37° C.; neutral loss of 129 Da, doublet mass difference 8 Da
Description: All microsomal incubations described herein were performed at 37° C. in a water bath. The test compound was mixed with human liver microsomal preparations (cytochrome P450 enzyme preparations) in 50 mM potassium phosphate buffer (pH 7.4) supplemented with the non-isotopically labeled compound of formula (I) and the isotopically labeled compound of formula (I-S) that were pre-mixed at an equal molar ratio of 1:1. The resulting mixtures were pre-warmed at 37° C. for 5 min. To the reaction mixtures was then added the co-factor—NADPH generating system—(to initiate the reaction) to yield a final volume of 1000 μl.
The resulting reaction mixtures contained 10 μM test compounds, 1 mg/ml microsomal proteins, 1 mM mixture of non-isotopically labeled compound of formula (I) and isotopically labeled compound of formula (I-IS), 1.3 mM NADP^+, 3.3 mM glucose-6-phosphate, 0.4 U/ml glucose-6-phosphate dehydrogenase, 3.3 mM magnesium chloride.
After a 60 min incubation, the reactions were terminated by the addition of 150 μl of trichloroacetic acid (10%). The resulting mixtures were centrifuged at 10,000 g for 15 min at 4° C. to pellet the precipitated protein, and the supernatants were subjected to solid-phase extractions. Alternatively, the reaction mixtures were subjected to liquid-liquid extractions to recover the metabolites from supernatants.
MS analyses were performed on a Micromass (Manchester, UK) Quattro Micro triple quadrupole mass spectrometer. The ESI ion source was operated in the positive ion mode, and experimental parameters were set as follows: capillary voltage 3.2 kV, source temperature 120° C., desolvation temperature 300° C., sample cone voltage 26 V. Mass spectra collected in the neutral loss scanning mode were obtained by scanning over the range m/z 400-800 in 2.0 s.
For complete profiling of reactive metabolites, samples were first subjected to chromatographic separations with an Agilent 1100 HPLC system with an auto-sampler (Agilent Technologies, Palo Alto, Calif.), and eluents were introduced to the Quattro Micro triple quadrupole mass spectrometer operated in the neutral loss scanning mode. An Agilent Zorbax SB C18 column (2.1×50 mm) was used for the chromatographic separation. […] At 7 min, the column was flushed with 95% acetonitrile for 2 min before re-equilibration at initial conditions. LC-MS/MS analyses were carried out on 10-μl aliquots of cleaned samples. Data were processed using the Masslynx version 4.0 software from Micromass. After a positive peak was detected, MS/MS spectra were subsequently obtained to further confirm the structure of the adduct(s). To acquire CID (Collision Induced Dissociation) spectra, the mass spectrometer was operated in the multiple reaction monitoring (MRM) mode.

Row | SMILES | components (reactive metabolite adducts) showing the characteristic isotopic doublet in the neutral loss scan
1 | c1coc(-c2cccs2)c1 [2-(2-Thienyl)-furan] | showed the characteristic isotopic doublet
2 | Cc1ccco1 [2-Methylfuran] | Two isomeric adducts
3 | O=C(O)Cc1ccccc1Nc1c(Cl)cccc1Cl [Diclofenac] | two of the components showed the expected isotope doublet
4 | c1ccoc1 [Furan] | displayed the characteristic isotopic doublet
5 | Cc1coc2c1CCC(C)C2 (stereo not drawn) [Menthofuran] | One component
6 | COc1ccc2[nH]c([S+]([O-])Cc3ncc(C)c(OC)c3C)nc2c1 (stereo not drawn) [Omeprazole] | Only one component
